In US20040097435A1, “Method of treating parasitic infection” (Pfizer Inc, priority 2000, published 2004):
Read-outs that look alike come from different tables or passages of the source.

How the values were obtained:
[1] = tested on: ectoparasites such as fleas; conditions: companion animals; cited from earlier work
Ctenocephalides felis [2] = tested on: Ctenocephalides felis
Procedure: (§1) Twenty-one adult females were allocated randomly to one of two treatments: placebo (negative control, 11 animals), or selamectin (10 animals). The selamectin, was formulated as: […]
(§2) Doses providing 6 mg/kg of selamectin were administered topically approximately 40 days and 10 days pre-partum and 10 days and 38 days post-partum in a single spot on the skin of each female's back at the base of the neck in front of the shoulder blades. Treatments were not administered to puppies. Post-partum day 1 was defined individually for each adult female as the day following the day of delivery of the last puppy in the litter.
(§3) Following observations of signs of pro-oestrus, the females were moved into randomly allocated carpeted pens in a building where the environment was suitable for the rapid completion of the flea reproductive cycle.
(§4) Each adult female was infested with 100 viable unfed adult C. felis approximately 60 days and 46 days pre-partum, and with 10 viable unfed adult fleas approximately 39, 33, 26, 19, 14 and 5 days pre-partum; an additional infestation was performed 7 days later if the female had not whelped. Each lactating female was also infested with 10 fleas on post-partum days 6, 15, 21, 28, 34 and 42. Comb counts of the number of viable adult fleas present on each female were made on approximately pre-partum days 41 and 11, and on postpartum days 9, 37 and 45. Comb counts of the fleas present on each puppy were performed on post-partum days 15, 24, 34, 42 and 45. After counting, up to 50 fleas per pregnant/lactating female and up to five fleas per puppy were replaced on each dog. For welfare reasons, if any dog was scratching or grooming excessively, additional unscheduled comb counts were performed on that dog and if necessary, the carpet was partially or entirely replaced to reduce the environmental flea challenge. Faecal egg counts for T. canis were performed for pregnant/lactating females on approximately pre-partum day 2 and on post-partum days 9, 17, 24 and 45, and for puppies on post-partum days 24 and 34.

Toxocara canis [3] = conditions: 6 mg/kg topical to dam; for geometric mean faecal egg count: puppies born to treated females
Procedure: as §1, §2, §3, §4

Toxocara canis [4] = conditions: 6 mg/kg topical to dam
Procedure: as §1, §2, §3
On post-partum day 45, each puppy was euthanised, its gastro-intestinal tract was removed and intestinal larval (L4) and adult T. canis were enumerated.

Toxocara cati = conditions: post partum day 49
Procedure: (§5) Thirty-eight adult females were allocated randomly to one of two treatments: placebo (negative control, 19 animals), or selamectin (19 animals). The selamectin, was formulated as: […]
(§6) Doses providing 6 mg/kg of selamectin were administered topically in a single spot on the skin of each female's back at the base of the neck in front of the shoulder blades on days 0 and 30 to individually-housed females and to females group-housed for mating on days 0, 30, 60 and 90 as required until kittening. All females were treated on post partum days 10 and 38. Treatments were not administered to kittens. […]. Study day 0 was defined individually for each adult female as the day on which the first treatment with either placebo or selamectin was administered and post partum day 1 was defined as the day following the day of delivery of the last kitten in the litter.
Each adult female was inoculated once with approximately 1000 embryonated T. cati ova, per os, between 150 and 31 days prior to commencing the study and again between 5 and 21 days before kittening.
On post partum day 49, each kitten was euthanased, its gastrointestinal tract was removed and intestinal larvae (L4) and adult T. cati were enumerated.

Ctenocephalides felis [5] = tested on: Ctenocephalides felis; remark: listed apart in the source
Procedure: as §5, §6

[6] = 6 mg/kg topical at monthly intervals during pregnancy and post-partum, female dogs
[7] = 6 mg/kg topical at monthly intervals during pregnancy and post partum, female cats
intestinal nematode = conditions: administered to pregnant bitch from pregnancy past parturition; Veterinary Parasitology, 1999, 85, 305; cited from earlier work
[8] = kittens at necropsy, 6 mg/kg topical to dam

Row | Compound | activity against ectoparasites such as fleas [1] | reduction in mean flea comb counts compared with puppies born to placebo-treated females (Ctenocephalides felis [2]; puppies, all counting days (post-partum days 15, 24, 34, 42 and 45)) | geometric mean flea comb count (Ctenocephalides felis [2]; puppies, all counting days (post-partum days 15, 24, 34, 42 and 45), 6 mg/kg topical to dam) | females or their puppies requiring additional flea control measures (Ctenocephalides felis [2]; to maintain flea burdens within acceptable limits) | reduction in mean faecal egg count compared with puppies born to placebo-treated females (Toxocara canis [3]; post-partum day 24) | reduction in mean faecal egg count compared with puppies born to placebo-treated females (Toxocara canis [3]; post-partum day 34) | geometric mean faecal egg count (Toxocara canis [3]; post-partum day 24) | geometric mean faecal egg count (Toxocara canis [3]; post-partum day 34) | reduction in mean adult T. canis count compared with puppies born to placebo-treated females (Toxocara canis [4]; necropsy post partum day 45) | geometric mean adult T. canis worm count (Toxocara canis [4]; puppies at necropsy, post-partum day 45) | geometric mean L4 T. cati count (Toxocara cati; [8]) | geometric mean adult T. cati count (Toxocara cati; [8]) | reduction in mean adult T. cati count compared with kittens born to placebo-treated females (Toxocara cati) | reduction in mean fourth stage larvae (L4) T. cati count compared with kittens born to placebo-treated females (Toxocara cati) | females or their kittens requiring additional flea control measures (Ctenocephalides felis [5]; after the first treatment on day 0, to maintain flea burdens within acceptable limits) | reduction in mean flea comb counts compared with kittens born to placebo-treated females (Ctenocephalides felis [5]; kittens, all counting days (post partum days 15, 24, 34, 42 and 49)) | geometric mean flea comb count (Ctenocephalides felis [5]; kittens, all counting days (post partum days 15, 24, 34, 42 and 49), 6 mg/kg topical to dam) | safety of treatment [6] | safety of treatment [7] | prevention of intestinal nematode infections in pups (intestinal nematode)
1 | CO[C@H]1C[C@H](O[C@H]2[C@H](C)O[C@@H](O[C@@H]3/C(C)=C/C[C@@H]4C[C@@H](C[C@]5(C=C[C@H](C)[C@@H](C6CCCCC6)O5)O4)OC(=O)[C@@H]4C=C(C)[C@@H](O)[C@H]5OC/C(=C\C=C\[C@@H]3C)[C@]54O)C[C@@H]2OC)O[C@@H](C)[C@@H]1O [doramectin] | poor activity | – | – | – | – | – | – | – | – | – | – | – | – | – | – | – | – | – | – | –
2 | CO[C@H]1C[C@H](O[C@@H]2/C(C)=C/C[C@@H]3C[C@@H](C[C@]4(CC[C@H](C)[C@@H](C5CCCCC5)O4)O3)OC(=O)[C@@H]3C=C(C)/C(=N/O)[C@H]4OC/C(=C\C=C\[C@@H]2C)[C@]43O)O[C@@H](C)[C@@H]1O [selamectin] | – | 100.0% | 0 | None | 96.8% | 96.1% | 0.8 epg | 2.1 epg | 98.2% | 0.1 | 0.0 | 0.0 | 100% | 100% | none | 100% | zero | safe | safe | –
3 | ivermectin | poor activity | – | – | – | – | – | – | – | – | – | – | – | – | – | – | – | – | – | – | can prevent intestinal nematode infections in pups
